Data reported in patent US10882818B1, “P-bromoaniline cassic acid ester with antibacterial activity and a method of preparing the same” (ZHUHAI JINAN SELENIUM SOURCE NANOTECHNOLOGY CO., LTD., priority 2020, dated 2021).
Converted amounts (≈) assume the structure as drawn.

What was measured:
Type in all cases: cell-based
[1] = tested on: carbapenem-resistant Acinetobacter baumannii CR-AB 18-183; experiment: Antibacterial activity test, MIC by microbroth dilution; details: 37° C., 20-22 hours
From the text: (§1) The minimal inhibitory concentration (MIC) of the compounds as determined by microbroth dilution method with gentamicin, cefazolin sodium and ceftriaxone sodium as positive control.
(§2) The experimental strains included methicillin-resistant Gram-positive bacteria: methicillin-resistant Staphylococcus aureus MRSA 18-222, 18-575; multiple drug-resistant Gram-negative bacteria: vancomycin-resistant enterococci VRE 18-80, 18-94, multidrug-resistant Pseudomonas aeruginosa MDR-PA 18-1774, 18-202, carbapenem-resistant Acinetobacter baumannii CR-AB 18-183, 18-560. All the experimental strains were donated by Huashan Hospital affiliated to Fudan University (Institute of Antibiotics, Fudan University) and used after routine identification.
(§3) Preparation of MHB medium: 20.0 g MHB medium was added to 1 L distilled water, boiled until completely dissolved, packed in conical bottles and sterilized at 121° C. for 15 min.
(§4) The experimental strain was cultured to the logarithmic growth phase: under aseptic condition, the experimental strain was inoculated into 100 mL MHB medium and incubated in a constant temperature and humidity incubator at 37° C. for 20-22 hours.
(§5) Preparation of storage solution: weighing the sample to be tested, dissolving it with 1% DMSO solution, preparing a storage solution with a concentration of 2560 μg/mL; weighing a positive reference substance, dissolving it with aseptic distilled water, and configuring a storage solution with a concentration of 2560 μg/mL.
(§6) Preparation of bacterial suspension: under aseptic condition, the experimental strains cultured to logarithmic growth phase were adjusted to 0.5 MCF turbidity standard with MHB medium and diluted according to 1:10, and the bacterial suspension with concentration of 10^6 CFU/mL was prepared for standby.
(§7) Dilution of storage solution and inoculation of experimental strain: under aseptic condition, the storage solution was diluted to 256 μg/mL solution; taking a sterile 96-well plate, adding 200 μL MHB medium to the 12th well, and adding 100 μL MHB medium to each well; adding 100 μL of positive control solution to the first well, mixing well, and sucking 100 μL from it and discarding; adding 100 μL of the compound sample solution to the second well, mixing well, and then pipetting 100 μL to the third well; after mixing, pipetting 100 μL to the fourth well, and diluting to the 11th well in this way; finally, 100 μL was pipetted from the 11th well and discarded, the 12th hole was the growth control without drugs. The concentration of the positive reference substance is 128 μg/mL; the concentrations of the sample solution are 128, 64, […], 8, 4, 2, 1, 0.5, 0.25 μg/mL, respectively. Then, 100 μL of the prepared bacterial suspension is added to each well, so that the final concentration of the bacterial liquid in each well is 5×10^5 CFU/mL.
(§8) Incubation: covering the 96-well plate inoculated with the experimental strains, and incubating in a constant temperature and humidity box at 37° C. for 20-22 hours.

[2] = tested on: carbapenem-resistant Acinetobacter baumannii CR-AB 18-560; experiment: as above; details: 37° C., 20-22 hours
From the text: as §1, §2, §3, §4, §5, §6, §7, §8

[3] = tested on: methicillin-resistant Staphylococcus aureus MRSA 18-222; experiment: as above; details: 37° C., 20-22 hours
From the text: as §1, §2, §3, §4, §5, §6, §7, §8

[4] = tested on: methicillin-resistant Staphylococcus aureus MRSA 18-575; experiment: as above; details: 37° C., 20-22 hours
From the text: as §1, §2, §3, §4, §5, §6, §7, §8

[5] = tested on: multidrug-resistant Pseudomonas aeruginosa MDR-PA 18-202; experiment: as above; details: 37° C., 20-22 hours
From the text: as §1, §2, §3, §4, §5, §6, §7, §8

[6] = tested on: vancomycin-resistant enterococci VRE 18-80; experiment: as above; details: 37° C., 20-22 hours
From the text: as §1, §2, §3, §4, §5, §6, §7, §8

[7] = tested on: vancomycin-resistant enterococci VRE 18-94; experiment: as above; details: for Minimum bacteriostatic concentration: VRE 18-94, microbroth dilution, 37° C., 20-22 hours
From the text: as §1, §2, §3, §4, §5, §6, §7, §8

[8] = tested on: multidrug-resistant Pseudomonas aeruginosa MDR-PA 18-174; experiment: as above; details: for Minimum bacteriostatic concentration: MDR-PA 18-174, microbroth dilution, 37° C., 20-22 hours
From the text: as §1, §2, §3, §4, §5, §6, §7, §8
In FIGS. 1-6, the twelve wells represent twelve groups, from left to right, positive, 128 μg/mL, 64 μg/mL, 32 μg/mL, 16 μg/mL, 8 μg/mL, 4 μg/mL, 2 μg/mL, 1 μg/mL, […], Negative.

drug-resistant bacteria = experiment: Antibacterial activity test, overall result on the strain panel; details: all experimental strains, up to 128 μg/mL
From the text: as §1, §2, §3
The experimental strain was cultured to the logarithmic growth phase: under aseptic condition, the experimental strain was inoculated into 100 mL MHB medium and incubated in a constant temperature and humidity incubator at 37° C. for 20-22 hours. […]

Row | Compound | Minimum bacteriostatic concentration [1] [µg/mL] | Minimum bacteriostatic concentration [2] [µg/mL] | Minimum bacteriostatic concentration [3] [µg/mL] | Minimum bacteriostatic concentration [4] [µg/mL] | Minimum bacteriostatic concentration [5] [µg/mL] | Minimum bacteriostatic concentration [6] [µg/mL] | MIC ([7]; Enterococcus, vancomycin-resistant enterococci VRE 18-94) [µg/mL] | Minimum bacteriostatic concentration [7] [µg/mL] | Minimum bacteriostatic concentration [8] [µg/mL] | MIC ([8]; multi-drug resistant Pseudomonas aeruginosa MDR-PA (strain number not given)) [µg/mL] | inhibitory effect on drug-resistant bacteria (drug-resistant bacteria)
1 | O=C(Nc1ccc(Br)cc1)c1cc(O)c2c(c1)C(=O)c1cccc(O)c1C2=O [p-Bromoaniline cassic acid ester, N-(4-bromophenyl)-4,5-dihydroxy-9,10-dioxo-9,10-dihydroanthracene-2-carboxamide] | >128 | >128 | >128 | >128 | >128 | >128 | 128 (≈ 292 µM) | 128 | 32 | 32 (≈ 73 µM) | 
2 | gentamicin | >128 | >128 | 128 | 2 | 0.0625 | 0.0625 |  | >128 | 0.0625 |  | 
3 | O=C(O)c1cc(O)c2c(c1)C(=O)c1cccc(O)c1C2=O [Cassic acid] | >128 | >128 | >128 | >128 | >128 | >128 |  | >128 | >128 |  | no inhibitory effect
4 | CO/N=C(\C(=O)N[C@@H]1C(=O)N2C(C(=O)O)=C(CSc3nc(=O)c(=O)[nH]n3C)CS[C@H]12)c1csc(N)n1 [Ceftriaxone sodium, ceftriaxone sodium] | >128 | >128 | >128 | >128 | 16 | 8 |  | >128 | 128 |  | 
5 | Cc1nnc(SCC2=C(C(=O)O)N3C(=O)[C@@H](NC(=O)Cn4cnnn4)[C@H]3SC2)s1 [Cefazolin sodium, cefazolin sodium] | >128 | >128 | >128 | >128 | 128 | 32 |  | >128 | 8 |  | 
6 | Nc1ccc(Br)cc1 [P-Bromoaniline, P-bromoaniline] | >128 | >128 | >128 | >128 | >128 | >128 |  | >128 | >128 |  | no inhibitory effect
